# Patent US11648253B2, “Thienopyrimidinone NMDA receptor modulators and uses thereof” (Novartis AG, priority 2015, dated 2023)
# Biological target: T1, NMDA receptor (GRIN1 / GRIN2B, NR2B) expressed in HEK293 cells (Homo sapiens, UniProt Q05586+Q13224)
# T1 construct: host or cells: HEK293
# Assay: Reversal of Ro 25-6981-mediated suppression of Ca2+ response (fluo-8 fluorescence, FDSS) in HEK293 cells expressing GRIN1/GRIN2B
# Assay type: cell-based
# Conditions: % reversal of Ro 25-6981 suppression of co-agonist (glutamate/glycine) Ca2+ response, test concentration not given
# Experimental: HEK293 cells with constructs conferring stable expression of the GRIN1 gene and tetracycline-inducible expression of the GRIN2B gene (Chantest, Cleveland, Ohio) are grown to ˜75% confluence in tissue culture flasks at 37° C., 5% CO2. NR2B expression is induced by overnight incubation with 0.3-0.4 μg/ml tetracycline in the presence of 2.5 mM ARL-15896 at 37° C., followed by moving to 30° C. for 3-5 hours. Cells are next harvested using TripleExpressm (Life Technologies, Carlsbad, Calif.) according to the manufacturer's instructions, first removing culture medium, rinsing with Dulbecco's phosphate buffered saline (Ca^2+ and Mg^2+-free), and then adding the TripleExpressm reagent. Harvested cells are spun down, washed twice in Ca^2+- and Mg^2+-free Hank's Balanced Salt Solution with 20 mM HEPES and 10 mM glucose, pH 7.4 (HHnoCa solution), and counted with viability assessed using Trypan Blue. Cells are loaded with fluo-8 Ca^2+-sensitive dye in HHnoCa solution according to the manufacturer's directions (AAT Bioquest, Sunnyvale, Calif.), incubating at 37° C. for 20 minutes followed by 25 minutes at 22-25° C. After a wash in HHnoCa to remove extracellular dye, cells are resuspended in HHnoCa and plated at […] cells per well in a volume of 25 μl/well in 384 well black-wall, clear bottom plates (Hamamatsu, Middlesex, N.J.). Plates are then centrifuged to create a monolayer in the wells and stored in the dark until used.
# Prior to analysis, compound plates are prepared with each compound at 6× the final desired concentration. From stock solutions at 10 mM in 100% DMSO, compounds are spotted in the desired amounts using an ECHO liquid handler (Labcyte, Sunnyvale, Calif.) into wells of a 384-well plate and then diluted with 50 μl of HHnoCa containing 750 nM Ro 25-6981 and 120 μM 5,7-dichlorokynurenic acid (both purchased from Tocris Bioscience (Bristol, England) and maintained as 10 mM stock solutions in 100% DMSO). To insure complete compound dissolution, these plates are then placed in an orbital shaker for at least one hour. Also prepared prior to the assay is a co-agonist plate containing HHnoCa with 240 μM glutamate, 2.4 mM glycine, and 7.2 mM CaCl2, which is 2.4× the desired final concentration of each reagent. Both the compound plate and co-agonist plate are 384-well polypropylene plates from Thermo Fisher Scientific, Waltham, Mass.
# The assay is performed by first adding 10 μl solution from each well of the compound plate described above to the cell plate using a CyBiWell liquid handler (Analytik Jena AG, Jena, Germany), followed by 10 minutes pre-incubation in the dark. Cell plates are then loaded onto a Hamamatsu FDSS 6000 plate reader. After a 30-second baseline, 25 μl is added to each well from the co-agonist plate, and the fluorescence signal is recorded for another 2 minutes. FDSS software applies shading and autofluorescence correction, and resultant raw fluorescence measurements are exported in the form of a fluorescence ratio for each well to its own reading at time zero in the experiment. In each plate, negative control wells consist of wells where Ro 25-6981 and 5,7 dichlorokynurenic acid are present and co-agonist is applied in the absence of any added assay compound. Under these conditions, the Ca^2+ response to co-agonist is suppressed. Positive control wells also present in each plate contain 5,7 dichlorokynurenic acid but no Ro 25-6981, so that co-agonist addition results in a large Ca^2+ response. Compounds tested are evaluated on the basis of their ability to reverse the suppression of the Ca^2+ response mediated by Ro 25-6981, which is quantified as % reversal=100*(R−Rneg)/(Rpos−Rneg) where R is the fluorescence ratio for the test compound at the end of the experiment and Rneg and Rpos are the end ratios for the negative and positive controls, respectively. […]
# T1 sequence (Q13224 27-1484, other chains not shown): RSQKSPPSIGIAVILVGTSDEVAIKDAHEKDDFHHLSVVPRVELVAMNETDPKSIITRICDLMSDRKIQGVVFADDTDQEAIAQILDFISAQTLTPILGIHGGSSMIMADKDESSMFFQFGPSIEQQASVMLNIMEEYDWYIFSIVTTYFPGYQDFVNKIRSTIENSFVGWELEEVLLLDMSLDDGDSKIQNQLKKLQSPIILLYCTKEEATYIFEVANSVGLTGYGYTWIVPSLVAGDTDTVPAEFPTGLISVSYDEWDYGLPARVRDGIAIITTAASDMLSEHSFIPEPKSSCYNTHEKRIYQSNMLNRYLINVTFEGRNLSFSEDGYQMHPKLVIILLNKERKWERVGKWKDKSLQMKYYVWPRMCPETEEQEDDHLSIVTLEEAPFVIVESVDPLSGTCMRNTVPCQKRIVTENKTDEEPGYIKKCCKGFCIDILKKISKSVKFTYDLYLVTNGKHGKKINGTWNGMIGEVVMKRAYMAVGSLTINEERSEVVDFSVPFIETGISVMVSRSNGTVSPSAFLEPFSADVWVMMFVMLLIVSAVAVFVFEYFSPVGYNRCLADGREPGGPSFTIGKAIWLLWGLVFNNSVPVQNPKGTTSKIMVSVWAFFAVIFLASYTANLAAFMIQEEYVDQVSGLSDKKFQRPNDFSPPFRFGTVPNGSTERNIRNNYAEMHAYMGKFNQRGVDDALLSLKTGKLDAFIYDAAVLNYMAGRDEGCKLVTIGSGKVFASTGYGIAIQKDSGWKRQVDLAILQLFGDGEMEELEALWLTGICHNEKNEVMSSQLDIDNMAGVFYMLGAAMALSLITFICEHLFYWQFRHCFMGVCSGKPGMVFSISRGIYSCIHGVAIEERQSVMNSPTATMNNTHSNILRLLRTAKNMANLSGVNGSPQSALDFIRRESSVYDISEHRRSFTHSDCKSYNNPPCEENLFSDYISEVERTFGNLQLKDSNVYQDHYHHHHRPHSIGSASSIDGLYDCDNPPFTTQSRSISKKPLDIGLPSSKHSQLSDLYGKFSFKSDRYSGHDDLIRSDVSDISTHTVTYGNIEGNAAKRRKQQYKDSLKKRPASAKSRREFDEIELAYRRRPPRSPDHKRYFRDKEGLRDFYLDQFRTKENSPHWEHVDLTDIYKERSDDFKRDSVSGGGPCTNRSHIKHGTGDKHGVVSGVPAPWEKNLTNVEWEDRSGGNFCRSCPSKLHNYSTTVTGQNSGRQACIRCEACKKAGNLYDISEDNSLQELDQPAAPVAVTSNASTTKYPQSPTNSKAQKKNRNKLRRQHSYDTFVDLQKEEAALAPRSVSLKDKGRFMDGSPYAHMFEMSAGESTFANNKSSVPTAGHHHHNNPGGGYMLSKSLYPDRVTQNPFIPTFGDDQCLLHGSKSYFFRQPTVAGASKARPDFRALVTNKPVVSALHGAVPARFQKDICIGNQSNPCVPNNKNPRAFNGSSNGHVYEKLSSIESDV
row,Avg Response Recovered (%),Compound
1,121%,"O=C(Cn1cnc2scc(-c3ccc(Cl)c(Cl)c3)c2c1=O)N1CC(F)(CF)C1 [Example 10, 5-(3,4-dichlorophenyl)-3-{2-[3-fluoro-3-(fluoromethyl)azetidin-1-yl]-2-oxoethyl}-3H,4H-thieno[2,3-d]pyrimidin-4-one]"
2,165%,"CC1(F)CN(C(=O)Cn2cnc3scc(-c4ccc(F)c(Cl)c4)c3c2=O)C1 [Example 14, 5-(3-chloro-4-fluorophenyl)-3-[2-(3-fluoro-3-methylazetidin-1-yl)-2-oxoethyl]-3H,4H-thieno[2,3-d]pyrimidin-4-one]"
3,149%,"CCC1(F)CN(C(=O)Cn2cnc3scc(-c4ccc(F)c(Cl)c4)c3c2=O)C1 [Example 12, 5-(3-chloro-4-fluorophenyl)-3-[2-(3-ethyl-3-fluoroazetidin-1-yl)-2-oxoethyl]-3H,4H-thieno[2,3-d]pyrimidin-4-one]"
4,152%,"CC1(F)CN(C(=O)Cn2cnc3scc(-c4ccc(Cl)c(Cl)c4)c3c2=O)C1 [Example 11, 5-(3,4-dichlorophenyl)-3-[2-(3-fluoro-3-methylazetidin-1-yl)-2-oxoethyl]-3H,4H-thieno[2,3-d]pyrimidin-4-one]"
5,24%,"COC1CN(C(=O)Cn2cnc3sc(-c4ccc(Cl)cc4)cc3c2=O)C1 [Example 17, 6-(4-chlorophenyl)-3-[2-(3-methoxyazetidin-1-yl)-2-oxoethyl]-3H,4H-thieno[2,3-d]pyrimidin-4-one]"
6,141%,"O=C(Cn1cnc2scc(-c3ccc(F)c(Cl)c3)c2c1=O)N1CC(F)(CF)C1 [Example 13, 5-(3-chloro-4-fluorophenyl)-3-{2-[3-fluoro-3-(fluoromethyl)azetidin-1-yl]-2-oxoethyl}-3H,4H-thieno[2,3-d]pyrimidin-4-one]"
7,49%,"O=C(Cn1cnc2scc(-c3ccc(F)c(Cl)c3)c2c1=O)N1CC(F)(F)C1 [Example 9, 5-(3-chloro-4-fluorophenyl)-3-[2-(3,3-difluoroazetidin-1-yl)-2-oxoethyl]-3H,4H-thieno[2,3-d]pyrimidin-4-one]"
8,−1%,"O=C(CCn1cnc2scc(-c3ccc(Cl)c(C(F)(F)F)c3)c2c1=O)N1CC(F)(F)C1 [Example 20, 5-[4-chloro-3-(trifluoromethyl)phenyl]-3-[3-(3,3-difluoroazetidin-1-yl)-3-oxopropyl]-3H,4H-thieno[2,3-d]pyrimidin-4-one]"
9,103%,"CCC1(F)CN(C(=O)Cn2cnc3scc(-c4ccc(Cl)c(Cl)c4)c3c2=O)C1 [Example 15, 5-(3,4-dichlorophenyl)-3-[2-(3-ethyl-3-fluoroazetidin-1-yl)-2-oxoethyl]-3H,4H-thieno[2,3-d]pyrimidin-4-one]"

# Continued, compound first:
row,Compound,Avg Response Recovered (%)
1,"O=C(Cn1cnc2scc(-c3ccc(F)cc3)c2c1=O)N1CC(F)(F)C1 [Example 7, 3-[2-(3,3-difluoroazetidin-1-yl)-2-oxoethyl]-5-(4-fluorophenyl)-3H,4H-thieno[2,3-d]pyrimidin-4-one]",6%
2,"O=C(Cn1cnc2scc(-c3ccc(Cl)c(C(F)(F)F)c3)c2c1=O)N1CC(F)(F)C1 [Example 6, 5-[4-chloro-3-(trifluoromethyl)phenyl]-3-[2-(3,3-difluoroazetidin-1-yl)-2-oxoethyl]-3H,4H-thieno[2,3-d]pyrimidin-4-one]",62%
3,"COC1CN(C(=O)Cn2cnc3scc(-c4ccc(Cl)cc4)c3c2=O)C1 [Example 4, 5-(4-chlorophenyl)-3-[2-(3-methoxyazetidin-1-yl)-2-oxoethyl]-3H,4H-thieno[2,3-d]pyrimidin-4-one]",1%
4,"O=C(Cn1c(C(F)(F)F)nc2scc(-c3ccc(Cl)cc3)c2c1=O)N1CC(F)(F)C1 [Example 21, 5-(4-chlorophenyl)-3-[2-(3,3-difluoroazetidin-1-yl)-2-oxoethyl]-2-(trifluoromethyl)-3H,4H-thieno[2,3-d]pyrimidin-4-one]",0%
5,"Cc1ccc(-c2csc3ncn(CC(=O)N4CC(F)(F)C4)c(=O)c23)cc1 [Example 8, 3-[2-(3,3-difluoroazetidin-1-yl)-2-oxoethyl]-5-(4-methylphenyl)-3H,4H-thieno[2,3-d]pyrimidin-4-one]",5%
6,"O=C(Cn1cnc2scc(-c3ccc(Cl)cc3)c2c1=O)N1CC(F)(F)C1 [Example 2, 5-(4-chlorophenyl)-3-[2-(3,3-difluoroazetidin-1-yl)-2-oxoethyl]-3H,4H-thieno[2,3-d]pyrimidin-4-one]",7%
7,"O=C(Cn1cnc2scc(-c3ccc(Cl)cc3)c2c1=O)N1CC2(COC2)C1 [Example 3, 5-(4-chlorophenyl)-3-(2-{2-oxa-6-azaspiro[3.3]heptan-6-yl}-2-oxoethyl)-3H,4H-thieno[2,3-d]pyrimidin-4-one]",0%
8,"Cc1nc2scc(-c3ccc(Cl)cc3)c2c(=O)n1CC(=O)N1CC(F)(F)C1 [Example 19, 5-(4-chlorophenyl)-3-[2-(3,3-difluoroazetidin-1-yl)-2-oxoethyl]-2-methyl-3H,4H-thieno[2,3-d]pyrimidin-4-one]",5%
9,"O=C(Cn1cnc2scc(-c3ccc(C(F)(F)F)cc3)c2c1=O)N1CC(F)(F)C1 [Example 5, 3-[2-(3,3-difluoroazetidin-1-yl)-2-oxoethyl]-5-[4-(trifluoromethyl)phenyl]-3H,4H-thieno[2,3-d]pyrimidin-4-one]",11%
10,"O=C(Cn1cnc2sc(-c3ccc(Cl)cc3)cc2c1=O)N1CCC1 [Example 16, 3-[2-(azetidin-1-yl)-2-oxoethyl]-6-(4-chlorophenyl)-3H,4H-thieno[2,3-d]pyrimidin-4-one]",23%
11,"O=C(Cn1cnc2scc(-c3ccc(Cl)cc3)c2c1=O)N1CCC1 [Example 1, 3-[2-(azetidin-1-yl)-2-oxoethyl]-5-(4-chlorophenyl)-3H,4H-thieno[2,3-d]pyrimidin-4-one]",2%
12,"Cc1sc2ncn(CC(=O)N3CC(F)(F)C3)c(=O)c2c1-c1ccc(Cl)cc1 [Example 18, 5-(4-chlorophenyl)-3-[2-(3,3-difluoroazetidin-1-yl)-2-oxoethyl]-6-methyl-3H,4H-thieno[2,3-d]pyrimidin-4-one]",11%
